From US4107202A, “Substituted 4,4'-biphenylylene bis(2-thioureylene)di-naphthalenetrisulfonic acids and salts thereof” (American Cyanamid Company, priority 1977, dated 1978)
Where a name gives a salt, the structure may show the parent alone.

How the values were obtained:
[1] = The New England Journal of Medicine, 286, 808-812 (1972); cited from earlier work
complement system = conditions: reported in literature; cited from earlier work
shunt pathway = assay: Test, Code 036 (C-Shunt inhibitor): lysis of fragile human erythrocytes in autologous serum via the shunt pathway activated by cobra venom factor; assay type: cell-based; parameters: key: Negative; conditions: activity in wells, two-fold serial dilution assay
whole complement = assay: Complement Level Reduction Test: whole complement in serum of dosed guinea pigs, capillary tube assay; assay type: in vivo, guinea pig; conditions: 200 mg/kg
Excerpt: An active inhibitor protects C2 from C1 and C4; (ii) Test, Code 035 (C3-C9 inhibitor) -- This test determines the ability of the late components of human complement (C3-C9) to lyse EAC 142 in the presence of appropriate dilutions of the test compound. An active inhibitor protects EAC 142 from lysis by C3-C9; (iii) Test, Code 036 (C-Shunt inhibitor) -- In this test human erythrocytes rendered fragile are lysed in autologous serum via the shunt pathway activated by cobra venom factor in the presence of appropriate dilutions of the test compound. Inhibition of the shunt pathway results in failure of lysis; (iv) Forssman Vasculitis Test -- Here, the well known complement dependent lesion, Forssman vasculitis, is produced in guinea pigs by intradermal injection of rabbit anti-Forssman antiserum. The lesion is measured in terms of diameter, edema and hemorrhage and the extent to which a combined index of these is inhibited by prior intraperitoneal injection of the test compound at 200 mg/kg is then reported, unless otherwise stated; (v) Forssman Shock Test -- Lethal shock is produced in guinea pigs by an i.v. injection of anti-Forssman antiserum and the harmonic mean death time of treated guinea pigs is compared with that of simultaneous controls; (vi) Complement Level Reduction Test -- In this test, the above dosed guinea pigs, or others, are bled for serum and the complement level is determined in undiluted serum by the capillary tube method of U.S. Pat. No. 3,876,376 and compared to undosed control guinea pigs; and (vii) Cap 50 Test -- Here, appropriate amounts of the test compound are added to a pool of guinea pig serum in vitro, after which the undiluted serum capillary tube assay referred to above is run. The concentration of compound inhibiting 50% is reported.
With reference to Table I, guinea pigs weighing about 300 g were dosed intravenously (i.v.) or intraperitoneally (i.p.) with 200 mg/kg of the test compound dissolved in saline and adjusted to pH 7-8. One hour after dosing, the guinea pigs were decapitated, blood was collected and the serum separated. The serum was tested for whole complement using the capillary tube assay. Percent inhibition was calculated by comparison with simultaneous controls. The results appear in Table I together with results of tests, code 026, 035, 036, Cap 50, % inhibition and Forssman shock.

[2] = tested on: late components of human complement (C3-C9); assay: Test, Code 035 (C3-C9 inhibitor): lysis of EAC 142 by late components of human complement; assay type: cell-based; parameters: key: Negative; conditions: activity in wells, two-fold serial dilution assay

## NC[C@H]1CC[C@H](C(=O)O)CC1 [tranexamic acid]
[1]
  use in the treatment of hereditary angioneurotic edema: used with success

## NCCCCCC(=O)O [epsilon-aminocapronic acid]
[1]
  use in the treatment of hereditary angioneurotic edema: used with success

## Nc1ccc2cc(S(=O)(=O)O)cc(O)c2c1N=Nc1ccc(NC(=O)Nc2ccc(N=Nc3c(N)ccc4cc(S(=O)(=O)O)cc(O)c34)c(S(=O)(=O)O)c2)cc1S(=O)(=O)O [chlorazol fast pink, 3,3'-ureylenebis-[6-(2-amino-8-hydroxy-6-sulfo-1-naphthylazo)]benzenesulfonic acid, tetrasodium salt]
Complement system
  complement inhibiting / anticomplementary effect: anticomplementary effect

## O=S(=O)(O)c1cc(NC(=S)Nc2ccc(-c3ccc(NC(=S)Nc4cc(S(=O)(=O)O)cc5cc(S(=O)(=O)O)cc(S(=O)(=O)O)c45)cc3S(=O)(=O)O)c(S(=O)(=O)O)c2)c2c(S(=O)(=O)O)cc(S(=O)(=O)O)cc2c1 [8,8'-[(2,2'-Disulfo-4,4'-biphenylylene)bis(2-thioureylene)]di-1,3,6-naphthalenetrisulfonic acid octasodium salt]
Shunt pathway
  Shunt Inhibition 036 Wells: N
Whole complement; intraperitoneal, 30 min
  In Vivo Activity (Guinea Pig) % Inhibition: -55%
Whole complement; intraperitoneal, 60 min
  In Vivo Activity (Guinea Pig) % Inhibition: -55%
Whole complement; intraperitoneal, 120 min
  In Vivo Activity (Guinea Pig) % Inhibition: -70%
Whole complement; intravenous, 2 min
  In Vivo Activity (Guinea Pig) % Inhibition: -92%
Whole complement; intravenous, 30 min
  In Vivo Activity (Guinea Pig) % Inhibition: -46%
Whole complement; intravenous, 120 min
  In Vivo Activity (Guinea Pig) % Inhibition: -31%
[2]
  C-Late 035 Wells: N

## heparin
Complement system
  complement inhibiting / anticomplementary effect: anticomplementary effect

## Cc1ccc(C(=O)Nc2ccc(S(=O)(=O)O)c3cc(S(=O)(=O)O)cc(S(=O)(=O)O)c23)cc1NC(=O)c1cccc(NC(=O)Nc2cccc(C(=O)Nc3cc(C(=O)Nc4ccc(S(=O)(=O)O)c5cc(S(=O)(=O)O)cc(S(=O)(=O)O)c45)ccc3C)c2)c1 [Suramin]
Complement system
  complement inhibiting / anticomplementary effect: competitive inhibitor of the complement system
